| Structure (SMILES) | melting point [°C] |
| --- | --- |
| O=C1c2cccc(O)c2C(=O)N1CC(=O)N1c2ccccc2N(Cc2ccccc2)C(=O)[C@H]2CCC[C@H]21 (relative stereo) | 272 |
| O=C1c2ccccc2C(=O)N1CC(=O)N1c2ccccc2N(Cc2ccccc2)C(=O)[C@H]2CCCC[C@H]21 (relative stereo) | 241 to 242 |
| COc1ccc2ccc(N3C(=O)c4ccccc4C3CC(CCC(C)C)=NO)nc2n1 (stereo not given) | 200 |
| COc1cc[nH]c1C=C1C(=O)Nc2cccc(C#CC(O)c3sccc3OC)c21 (racemic) | 213 to 216 |
| BrCCCN(c1ccccc1)c1ccccc1 | 162 to 164 |
| O=[N+]([O-])c1ccc(CO)c([N+](=O)[O-])c1 | 105 to 110 |
| COC(=O)C1CCCc2c(-c3ccc(Cl)cc3)nsc2C1 (stereo not given) | 108 to 109 |
| COC(=O)C1Cc2c([nH]c3ccccc23)C(c2ccoc2)N1 (stereo not given) | 130 |
| COC(=O)c1ccc[nH]c1=O | 148 to 151 |
| CCc1ccc(CCOc2ccc(CC(N)C(=O)O)cc2)nc1 (stereo not given) | 214 to 221 |
| CSc1nn2c(N)cc(CN3CCN(C)CC3)nc2c1S(=O)(=O)c1ccccc1 | 203 to 205 |
| O=C1NN=C(c2ccc3[nH]c(-c4ccncc4)cc3c2)CO1 | 322 to 325 |
| CN1CCN(C2=Nc3cc(Br)ccc3-n3ccc4cc(Br)cc2c43)CC1 | 158 to 159 |
| C=CCOC(=O)NC(C)(C)c1ccc(-c2nc(Nc3ccc(CCn4ccnc4)cc3)ncc2Cl)cc1F | 88 |
| COc1ccc(N2CCOCC2)c2sc(-c3nc4ccc(C)nc4[nH]3)nc12 | 200 to 210 |
| N#Cc1cc(N=Nc2cccc(Cl)c2)ccc1N | 255 |
| COCOc1ccc(C=C[N+](=O)[O-])cc1OCc1ccccc1 | 75 to 76 |
| CCCc1nc2c(N)nc3cccnc3c2n1CCCCN(OC)C(=O)c1ccccc1 | 125 to 127 |
| Cc1oc(-c2ccccc2)nc1CCOc1ccc(CC(C(N)=O)C(=O)O)cc1 (stereo not given) | 138 |
| CNC(=NS(C)(=O)=O)NCCCCCc1nc(N)nc(NC(N)=NCC(F)(F)F)n1 | 131 to 133 |
| O=C(NCCc1ccc([N+](=O)[O-])cc1)Nc1ccc(Nc2ccccc2)cc1 | 204 to 205 |
| O=C(N[C@@H](Cc1ccccc1)C[C@H](O)[C@H](Cc1ccccc1)NC(=O)OCc1nccs1)OCc1nccs1 | 66 to 69 |
| OCCCNc1cc(Nc2ccc(N3CCOCC3)cc2)ncn1 | 198 to 199 |
| O=C(O)CN1CC(c2ccc(Cl)cc2)CC1=O (stereo not given) | 142 to 143 |
| Cc1ccc(-c2ccc3c(c2)C=C(C(=O)Nc2ccc(CN(C)C4CCOCC4)cc2)CCO3)s1 | 129 to 130 |

| Structure (SMILES) | melting point [°C] |
| --- | --- |
| CNC(=O)CCCCSc1nccc(NC(N)=NCC(F)(F)F)n1 | 148 to 150 |
| CCCCc1nc(Sc2ccccc2)c(CO)n1Cc1ccc(-c2ccccc2C(=O)O)cc1 | 215 |
| CCCCOc1cc(C(=O)O)cc([N+](=O)[O-])c1C(=O)c1ccc(Cl)cc1 | 180 to 182 |
| CCCOc1cc(CCC(=O)O)ccc1OCCCc1cn(-c2ccc(C(F)(F)F)cn2)nc1OCC | 106 to 107 |
| CCOC(=O)C(CC(=O)O)(Cc1cn(C)c2ccccc12)C(=O)OCC | 127 to 130 |
| CC(C)c1cccc(C(C)C)c1NC(=O)CN1CCN(CCCSc2nc3ncccc3o2)CC1 | 125 to 127 |
| CCOC(=O)\C=C(C)/C=C/C=C(C)/C=C/C1=C(C)C[C@@H](O)CC1(C)C | 93 to 95 |
| COc1cc2onc(C3CCN(CCCn4c(=O)[nH]c5ccccc54)CC3)c2cc1OC | 147 to 149 |
| CN(CCCC(N)=O)Cc1ccc(Cl)cc1 | 62 to 64 |
| CC(C)Nc1nc2cc(F)c(F)cc2[nH]1 | 188 to 189 |
| COc1ccc(-c2nc3ccc(OC)cc3s2)cc1 | 162 to 164 |
| CCCCCc1ccc(OCC(O)CCCCCCC(=O)O)cc1 (stereo not given) | 105 to 106 |
| CCCCSc1cc(C(=O)OCC)cc(S(N)(=O)=O)c1Cl | 160 to 162 |
| O=C(C1CCCCC1)N(CCN1CCN(CC(O)c2ccccc2)CC1)c1ccccn1 (stereo not given) | 140 to 142 |
| CN1Cc2c(C(N)=NO)ncn2-c2cccc(Cl)c2C1=O | > 250 |
| CC(=O)Oc1ccc(C2=NNC(=O)CC2C)cc1 (stereo not given) | 152 to 153 |
| CC(=NO)c1ccc(N2CC(CO)OC2=O)cc1 (stereo not given) | 190 |
| CCCCOc1ccc(CO)c(Oc2ncc(C(F)(F)F)cc2Cl)c1 | 77.8 to 79.2 |
| CC(C)(C)NS(=O)(=O)c1cnc(-c2cn(-c3nc(-c4ccc(C(F)(F)F)cc4)cc(C(F)(F)F)n3)cn2)s1 | 281 |
| COCCOC(=O)c1c(-c2ccncc2)[nH]c(-c2ccncc2)c1C | 174 to 177 |
| CCN(C)C(=O)N(C)C(=O)Nc1ccccc1 | 88.5 to 90.5 |
| COc1nc(N2CC(O)C2)c(Cl)nc1NS(=O)(=O)c1cccc(Cl)c1Cl | 93 to 95 |
| O=C(Nc1n[nH]c2cc(Cl)ccc12)c1cccs1 | 215 |
| CCC1(CC)c2cc(N)ccc2-c2ccc(-c3nc4ccccc4s3)cc21 | 206 to 207 |
| Cc1cccc(C(=O)C(=C2SCS2)c2ccncc2)c1 | 179 |

| Structure (SMILES) | melting point [°C] |
| --- | --- |
| CCCCCCCCC(CCC)CC(=O)Nc1ccccc1 (stereo not given) | 98 to 100 |
| COC(C)CCC1(O)C2=NCCCN2c2cc(Cl)ccc21 (stereo not given) | 146 to 148 |
| COC(=O)C1=C(C)NC(C#N)=C(C(=O)OC)C1c1ccccc1[N+](=O)[O-] (stereo not given) | 170 to 172 |
| COC(=O)c1cc(C)c(C(OC(=O)C(Cc2ccccc2)NS(=O)(=O)c2ccc(C)cc2)c2cc(-n3ccnc3)ccc2C)c(C)c1 (stereo not given) | 111 to 112 |
| COCC(=O)Nc1c(Cl)c(Cl)cc2nc(OC)c(OC)nc12 | 171 to 173 |
| O=C(NCc1cccnc1)c1ccc2n1Cc1ccccc1N(C(=O)COc1ccc(Cl)cc1)C2 | 169 to 171 |
| CCOC(=O)c1cc2cccnc2nc1C(=O)OCC | 83 to 85 |
| Cc1nc(-c2cc(Cl)ccc2Cl)n2c1nnc1ccc(F)cc12 | 165 to 168 |
| O=Cc1ccc2c(c1)NC(=O)CO2 | 220 to 222 |
| CCOC(=O)CC(=O)NNc1ncc(-c2ccccc2)nc1CC(C)C | 116 to 118 |
| Cc1ccc2c(c1)C(=O)c1ccccc1CC2 | 34 to 35 |
| CCCCc1cccn1NS(=O)(=O)C1CCCC=C1C(=O)OCC (stereo not given) | 49 to 50 |
| Cc1cc(-c2cc(O)c(SCc3ccccc3)c(=O)o2)cc(C)c1O[Si](C)(C)C(C)(C)C | 137 to 139 |
| COc1nc(C)cnc1NS(=O)(=O)c1cccnc1-c1ccc(CC(C)C)cc1 | 128 to 129 |
| O=C(O)CN1C(=O)C(=Cc2ccc(OCCc3ccccc3)c(OC(c3ccccc3)C(F)(F)F)c2)SC1=S (stereo not given) | 168 |
| COC(=O)Cc1ccc(CNC(=O)C2Cc3ccccc3N2S(=O)(=O)c2ccc(-c3cccc(C(F)(F)F)c3)cc2)c(F)c1 (stereo not given) | 50 to 57 |
| COC(=O)c1cscc1Nc1ccc(C(F)(F)F)cc1[N+](=O)[O-] | 175 |
| COc1ccc2c(c1)[nH]c(=O)c(=O)n2C | 332 |
| Cc1nc(N2CCC(Cc3ccc(OC(F)(F)F)cc3)C2=O)sc1C(=O)NCc1cccnc1 (stereo not given) | 158 to 160 |
| Fc1ccc(C(=C(c2ccccc2)c2ccc(OCCBr)cc2)C(F)(F)F)cc1 | 115 to 118 |
| CNC(=O)NC1CC(N)(C(=O)O)C2C(C(=O)O)C12 (stereo not given) | > 275 |
| CC(=O)Nc1cccc2c1C(=O)c1c-2n[nH]c1-c1ccc(O)cc1 | > 300 |
| CCc1c(-c2ccc(OCc3ccccc3)cc2)c2c(C(=O)OC)c(C(=O)OC)c3c(OCc4ccccc4)ccc1n32 | 115 to 120 |
| O=C(Cn1c(=O)c(=O)[nH]c2cc(C(F)(F)F)c(-n3cccc3)cc21)NCc1ccccc1 | 241 to 242 |
| O=C(OCC(Cl)(Cl)Cl)n1ccnc1 | 80 |

| Structure (SMILES) | melting point [°C] |
| --- | --- |
| CCNc1nc(SC)ncc1C(=O)O | 188 |
| COc1ccccc1NC(=O)Nc1ccc(C2CCN(C(=O)Nc3ccc(OCCO)cc3Cl)CC2)cc1 | 166 to 168 |
| CC(C)(C)OC(=O)NCCOc1noc2cccc(C#N)c12 | 116 to 117 |
| CC(C)(O)Cn1c(CO)nc2c(N)nc3cc(CCC(=O)N4CCOCC4)ccc3c21 | 223 to 225 |
| O=C(O)c1cc(NCc2ccc(F)cc2)ccc1O | > 210 |
| CCCCCCCC(=O)N[C@@H](Cc1ccc(O)cc1)C(=O)OC | 76 |
| CN(C)c1ccc2nc(N)c(C#N)c(O)c2c1 | 360 |
| CCCCCCCCC(Br)C(=O)Nc1c(OC)cc(OC)cc1OC (stereo not given) | 109 to 110 |
| CCNC(=O)c1c(Cl)cccc1[Si](C)(C)C1CC2CCC1C2 (stereo not given) | 124 to 125 |
| CSc1cc2n(c1C(=O)c1ccccc1)CCC2C(=O)O (stereo not given) | 191 to 192 |
| NC(=O)CNC(=O)c1cccc(-c2cccc3cc(COc4cc(Cl)cc(Cl)c4)sc23)c1 | 164 to 165 |
| COC(=O)C=Cc1ccc(OCc2nc(-c3ccccc3)oc2C)c(C(F)(F)F)c1 | 148 to 149 |
| CCCCCCCCCCCCCCCCCCNC(=O)O[C@H]1CCCO[C@H]1CO (relative stereo) | 85 to 86 |
| NCc1cc2cc(Cl)cc(-c3ccccc3)c2o1 | > 225 |
| COc1cc2cn(C3CCCCC3)nc2cc1OC | 100 to 103 |
| COc1ccc(C(=O)Nc2ccc(C(=O)Nc3ccccc3)cc2)cc1C12CC3CC(CC(C3)C1)C2 | 265 to 268 |
| CC(C)(C)c1ccc(C(=O)Nc2cn3nc(-n4cnc(CO)c4)ccc3n2)cc1 | 298 to 301 |
| Cc1[nH]c(C=O)c(C)c1C(=O)NCCC1CCCN1C (stereo not given) | 143 to 149 |
| Cc1cccc2nnc(-c3ccccc3)c(Cl)c12 | 128 |
| CCCCCCOC(=O)Oc1ccc(-c2ccc(C#N)cc2)cc1 | 87.1 to 87.5 |
| Fc1ccc2c(c1)Oc1ccccc1-c1nc(S)[nH]c1-2 | 299 to 300 |
| CCCCCCCCCCC(O)C(O)CN (stereo not given) | 98 to 100 |
| O=Ic1ccc(Cl)cc1[N+](=O)[O-] | 118 |
| CN(C)Cc1ccc(CN)cc1 | 38 to 39 |
| CCN(CC)CCCNc1nnc(C)c2c1cc1n2CCCC1 | 171 to 172 |
